Key:
[1] = system: ECRF24 cells; experiment: Cell viability (proliferation) assay on endothelial cells ECRF24; type: cell-based, human; conditions: for single-drug dose required for the same EC proliferation inhibition as the best combination (90% inhibition): assuming linear dose-response curves; for theoretical dose reduction in combination: vs single-drug dose for 90% inhibition
Experimental: (§1) Cell viability assay was performed as previously described (31).
The feedback system control (FSC) technique was employed as previously described (13, 33, 34). In the research presented here, the FSC technique is implemented using the differential evolution (DE) algorithm (35) and two separate optimization were performed with the cellular outputs of ECRF cell viability (proliferation) and migration (wound healing) assays. 19 drug combinations were tested per iteration and 11 iterations were performed in each optimization, or until a plateau in the best output value was reached.
Drug mixing was performed as follows: stock solutions were first used to prepare the highest concentration of each compound and lower concentrations were prepared through serial dilutions of the higher concentrations. All drug concentrations were prepared 9 times more concentrated than desired to account for dilution by other compounds (or medium when a compound was not included). The drug mixtures were prepared directly before applying drug combinations to cells by first adding the required amount of medium for each combination (i.e.
all compounds which are included at concentration 0) and then adding the required concentration of each compound, always in the same order. The cells were incubated in 50 μl of each mixture for 72 h in the proliferation assay or for 6 h in the migration assay.
Second order linear regression models were generated using the data obtained from each optimization. Data was modeled using real concentration values and both concentration values and proliferation output data was transformed using the z-score function in Matlab. The negative values of the 2nd-order terms regression coefficients corresponds to synergistic effect, the positive value to the antagonistic effect. Appropriate data and model verification methods were implemented to ensure the accuracy and reliability of predictions made based on these models. The main assumptions of linear regression models were verified (i.e. weak exogeneity, linearity, constant variance, independence of errors, and lack of multicolinearity). As the presence of multicolinearity was indicated in a few of the regressors in the second order linear regression model of the proliferation data (based on the analysis of variance inflation factors (VIF) and condition indices), a stepwise linear regression was also performed to isolate the most important regressors and remove instabilities in the regression analysis due to multicolinearity. Drug interactions were additionally analyzed using the Compusyn software (14), where a ‘combination index’ (CI) is calculated for drug combinations and CI values less than […] indicate synergistic drug combinations, while CI-values greater than 1 indicate antagonistic drug.

[2] = system: panAKT, pMAPK and ribosomal protein S6 (pS6); experiment: Western blot of panAKT, pMAPK and pS6 in ECRF24; type: cell-based, human; conditions: 5 hrs incubation
Experimental: Cells were seeded in a 6-well plate (30×10^4 cells per well) 24 h prior to the removal of medium and application of selected drug combinations or DMSO control (total volume of 2 mL). After an additional 5 hrs of incubation at the given conditions, medium was removed, cells were washed with PBS and 100 μl of buffer lysate was added (prepared on ice and composed of RIPA, protease inhibitors (1:1000) and sodium orthovanadate (1:1000)). Wells were then scratched and cell lysate solution was removed and put on ice for 10 min. Cell supernatant was isolated after centrifuging solution at 12,000 min^−1 for 15 min. A solution of blue buffer (4×)+u-Page Reducing Agent (10×) was added to supernatant and samples were kept at 95 ° C. for 5 min.
The samples were then run in an electrophoresis gel for 90 min at 125 V. The monoclonal antibodies included phosphorylated Akt (473), total Akt, phosphorylated MAPK, and phosphorylated S6 (235/236 hamster, Cell Signaling). Cell extracts were prepared by detergent lysis [50 mmol/L Tris-HCl (pH 8.0), 150 mmol/L NaCl, 1% NP40, 0.5% sodium deoxycholate, 0.1% SDS containing protease (Sigma, St. Louis, Mo.) and phosphatase (Sigma) inhibitor cocktails]. The soluble protein concentration was determined by micro-BSA assay (Pierce, Rockford Ill.). Protein immunodetection was done by electrophoretic transfer of SDS-PAGE separated proteins to nitrocellulose, incubation with antibody and chemiluminescent second step detection (PicoWest; Pierce). Protein expression was quantified in Fiji by densitometry as previously described (39, 40). Results were expressed as a relative ratio between samples and control.

[3] = system: LS174T tumors; experiment: Human colorectal adenocarcinoma (LS174T) grafted intradermally in Swiss nu/nu mice; type: in vivo; conditions: treated daily; for tumor growth inhibition: doses per Table 2
Experimental: Mice were randomized into groups and treated with sham (CTRL), individual drugs, 4+8+9 (M1 and M2), and 4+8 (M3), respectively (Table 2) Individual drugs inhibited tumor growth only by approximately 0% and 6% (4) at 5 and 15 mg/kg, 10% (8) or 23% (9), whereas combinations M1 and M2 by 76±14% and 25±17%, respectively (FIG. 5D). On the last day of the experiment (FIG. 5E) tumors were resected, and paraffin embedded for immunohistochemical staining for endothelial cells (CD31). In M1-treated tumors microvessel density was approximately 80% lower then in sham-treated tumors (CTRL), FIG. 5F.
FIG. 5. Inhibition of A2780 (A-C) or LS174T (D-F) tumor growth in vivo by the best mixtures optimized. (A) Growth curve of A2780 tumors grafted on the CAM showing tumor volume with respect to treatment day. Treatment was administered i.v. on days 1 and 2 and tumors were excised on the 8th (last) day of experiment. Data points represent the average tumor volume as a percentage of the final control volume per experiment. (B) Figures show representative tumors of sham treated (CTRL) and F drug combination. (C) The microvessel density profiles are expressed as the number of vessels per mm^2 and presented as a percentage of a control. (D) LS174T grafted intradermally in Swiss nu/nu mice and treated daily with single compounds or mixtures. Data points represent the average tumor volume as a percentage of the final control volume per experiment and error bars represent the SEM; N=3-9. *p <0.05 and **p<0.01. ‘S’ indicates synergy (Cl≦0.8). (E) The microvessel density profiles are expressed as the number of vessels per mm^2 and presented as a percentage of a control. […] The bar in the upper right image represents 0.5 mm and is valid for both images. Data points represent average values of 2 independent experiments and error bars represent SEM; N=3-7; **p<0.01.

[4] = system: A2780 cells; experiment: Cell viability assay on A2780; type: cell-based, human; conditions: 72 h
Experimental: (§2) Cell viability assay was performed as previously described (31). Cells were seeded in a 96-well culture plate at a density of 2.5-10×10^3 cells/well, depending on cell type (ECRF24 in gelatin-coated plates), 24 h prior to the application drug combinations or control conditions (in a total volume of 50 μl) and were subsequently incubated for an additional 72 h. Cell viability was assessed using the CellTiter-Glo luminescent cell viability assay (Promega, Madison, Wisc., USA).

[5] = system: A2780 tumors grafted on the CAM; experiment: Human ovarian carcinoma (A2780) grafted on the chicken chorioallantoic membrane (CAM); type: in vivo, chicken embryo; conditions: for tumor growth inhibition, single compound at high concentration: high concentration: 29 μg/kg (4) and 615 μg/kg (8); for tumor growth inhibition, single compound at low concentration: low concentration: 2.9 μg/kg (4) and 307 μg/kg (8)
Experimental: Human ovarian carcinoma tumors were implanted on the CAM as previously described (36). Briefly, fertilized chicken eggs were incubated in a hatching incubator (37° C. and relative humidity 65%), as previously described (37). […] Treatment began when vascularized tumors were visible, 3 days after tumor implantation (EDD10). Drug combinations were prepared as done in in vitro assays, were pre-mixed and administered as a 20 μL intravenously injection. […] On the last day of experiment CAM experiments, tumors were resected, fixed overnight in zinc fixative solution as previously described (38). […] Primary antibody incubation was performed overnight (DIA-310; Dianova, Hamburg, Germany).

[6] = system: HUVEC; experiment: Cell viability assay on HUVEC; type: cell-based, human; conditions: 72 h
Experimental: as §1

[7] = system: 786-0 cells; experiment: Cell viability assay on 786-0; type: cell-based, human; conditions: 72 h
Experimental: as §2

[8] = system: renal cell carcinoma (Caki-1) cells; conditions: combinations of Table 4
Experimental: as §2

Compound | single-drug dose required for the same EC proliferation inhibition as the best combination (90% inhibition) [1] | theoretical dose reduction in combination [1] [fold] | pAkt protein [2] | tumor growth inhibition, single compound at high concentration [5] [%] | tumor growth inhibition, single compound at low concentration [5] | inhibition of HUVEC viability [6] | tumor growth inhibition [3] [%] | other results
C#Cc1cccc(Nc2ncnc3cc(OCCOC)c(OCCOC)cc23)c1 [compound 4, erlotinib] | approximately 50 μM | 5 | slight decrease | ~20 | approximately 6% | more sensitive |  | tumor growth inhibition at 5 mg/kg ([3]; 5 mg/kg): approximately 0%; tumor growth inhibition at 15 mg/kg ([3]; 15 mg/kg): ~6%; inhibition of A2780 cell viability [4]: approximately 40%
Cc1ccc(C(C)C)cc1.[Cl][Ru]([Cl])[PH]12CN3CN(CN(C3)C1)C2 [compound 8, RAPTA-C] | ~2000 µM | 11 | slight decrease | ~20 | approximately 6% |  | ~10 | 
CNC(=O)c1ccccc1Sc1ccc2c(/C=C/c3ccccn3)n[nH]c2c1 [compound 3, axitinib] |  |  |  |  |  |  |  | inhibition of 786-0 cell viability [7]: approx. 30%
Cn1c(=O)n(-c2ccc(C(C)(C)C#N)cc2)c2c3cc(-c4cnc5ccccc5c4)ccc3ncc21 [compound 9, BEZ-235] | ~0.12 µM | 6 |  |  |  | more sensitive | ~23 | pS6 expression [2]: nearly complete inhibition; pS6 expression ([2]; listed as BEZ235): inhibited; tumor growth inhibition, single compound at its applied concentration ([5]; limiting compound, dose used in the combinations): approximately 35%
AZD4547 |  |  |  |  |  |  |  | inhibition of Caki-1 cell proliferation / synergy [8]: effective and synergistic inhibition

Source: patent publication US20170014372A1, “Drug Combination for Treatment of Proliferative Diseases” (ECOLE POLYTECHNIQUE FEDERALE DE LAUSANNE (EPFL), priority 2014, published 2017)
